Here are results for 32 compounds from patent US11352352B2, “Aminopyrimidine compound, preparation method therefor and use thereof” (BEIJING ADAMADLE BIOTECHNOLOGY LIMITED LIABILITY COMPANY, priority 2017, dated 2022).

Holding throughout (assay): Cell proliferation inhibition experiment, CellTiter-Glo (CTG) method
What all share (assay type): cell-based
On the technique in general: Cellular ATP, detected with luciferase, serves as a proxy for viable cell number.

Assay [1] concerns PC-9. Conditions: Homo sapiens, PC-9, 72 h, PC-9 cells, 3 days. A digest of the protocol: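 Cells in log-phase growth (viability above 90% by trypan blue) were seeded at 90 μL per well in black-walled, clear-bottom 96-well plates and incubated overnight at 37° C., 5% CO2. A T0 plate was read the next day. Test compounds were added at nine concentrations in triplicate with a solvent control. Viability was measured by CellTiter-Glo luminescence on EnVision, and IC50 came from non-linear S-curve fitting in GraphPad Prism 5.0.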

The subject of assay [2] is NCI-H1975. The conditions noted are these: for IC50: Homo sapiens, NCI-H1975, 72 h, NCI-H1975 cells, CTG, 3 days; for A-431/NCI-H1975 Selectivity: ratio of A-431 IC50 to NCI-H1975 IC50. In a few lines: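 NCI-H1975 cells with viability above 90% by trypan blue were seeded at 90 μL per well in black 96-well plates and incubated overnight at 37° C., 5% CO2. Compounds were added at nine concentrations in triplicate, and viability was measured with CellTiter-Glo luminescence on EnVision. IC50 came from non-linear S-curve fitting in GraphPad Prism 5.0.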

In assay [3] the test system is A-431. Conditions: Homo sapiens, A-431, 72 h, A-431 cells, 3 days. In a few lines: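 IC50 values come from sigmoidal dose-response fits of percent survival, measured by CellTiter-Glo luminescence after 3 days' culture with compound. Nine-point, threefold series in triplicate, starting at 30 μM for A-431 and at 1.111 μM for NCI-H1975 and PC-9.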

In the case of `C=CC(=O)Nc1cc(Nc2cc(-c3ccc4c(cnn4CC)c3)ncn2)c(OC(F)F)cc1N(C)CCN(CC)CC` [compound 96], the IC50 in assay [1] is 10.8 nM; in assay [2], 13.7 nM; in assay [3], 945 nM. Also, the “A-431/NCI-H1975 Selectivity” value in assay [2] is on record as 69.

As for `C=CC(=O)Nc1cc(Nc2cc(-c3ccc4c(cnn4C)c3)ncn2)c(OC(F)F)cc1N1C[C@@H](C)N(C)[C@@H](C)C1` [compound 97], the IC50 in assay [1] worked out at 22.6 nM; in assay [2] it was 33.1 nM; in assay [3], 798 nM. Moreover, the “A-431/NCI-H1975 Selectivity” value in assay [2] is listed as 24.1.

Regarding `C=CC(=O)Nc1cc(Nc2cc(-c3ccc4c(cnn4CC)c3)ncn2)c(OC(F)F)cc1N1C[C@@H](C)N(C)[C@@H](C)C1` [compound 98], the results for the IC50 in assay [1], in assay [2] and in assay [3] were 31.7 nM, 83.5 nM and 1060 nM, respectively. The “A-431/NCI-H1975 Selectivity” value in assay [2] is 12.7.

`C=CC(=O)Nc1cc(Nc2cc(-c3ccc4c(cnn4C)c3)ncn2)c(OC)cc1N1CCC(N2CCN(C(C)C)CC2)CC1` [compound 101]: the IC50 amounted to 19.5 nM in assay [1], 7.3 nM in assay [2] and 633 nM in assay [3].

Consider `C=CC(=O)Nc1cc(Nc2cc(-c3ccc4c(cnn4C)c3)ncn2)c(OC)cc1N1CCOCC1` [compound 102], for which the IC50 in assay [1] worked out at 12.5 nM; in assay [2], 14.1 nM; in assay [3], 986 nM. Moreover, in assay [2], the “A-431/NCI-H1975 Selectivity” value is listed as 70.0.

On to `C=CC(=O)Nc1cc(Nc2cc(-c3ccc4c(cnn4C)c3)ncn2)c(OC)cc1N1CCN(CC2CC2)CC1` [compound 105], for which the IC50 came to 17.9 nM in assay [1], 14.6 nM in assay [2] and 778 nM in assay [3]. For the same compound, in assay [2], the “A-431/NCI-H1975 Selectivity” value was determined as 53.3.

Regarding `C=CC(=O)Nc1cc(Nc2cc(-c3ccc4c(cnn4C)c3)ncn2)c(OC)cc1N1CCC2(CC1)COC2` [compound 107], the IC50 in assay [1] was determined as 17.8 nM; in assay [2], 16.5 nM; in assay [3] it was 1290 nM. Moreover, the “A-431/NCI-H1975 Selectivity” value in assay [2] was 78.2.

As for `C=CC(=O)Nc1cc(Nc2nccc(-c3ccc4c(cnn4C)c3)n2)c(OC)cc1N(C)C1CCN(C)C1` (stereo not shown) [compound 109], the IC50 in assay [1] is 35 nM; in assay [2], 32.3 nM; in assay [3], 1430 nM. For the same compound, the “A-431/NCI-H1975 Selectivity” value in assay [2] is recorded as 44.4.

Regarding `C=CC(=O)Nc1cc(Nc2cc(-c3ccc4c(cnn4C)c3)ncn2)c(OC)cc1N(C)[C@@H]1CCN(C)C1` [compound 110], the 50% inhibitory concentration (IC50) in assay [1] worked out at 6.9 nM; in assay [2], 8 nM; in assay [3] it was 599 nM.

On to `C=CC(=O)Nc1cc(Nc2cc(-c3ccc4c(cnn4C)c3)ncn2)c(OC(F)F)cc1N(C)C1CCN(C)C1` (stereo not shown) [compound 111], for which the IC50 in assay [1] was 16.8 nM; in assay [2], 18 nM; in assay [3], 948 nM. The “A-431/NCI-H1975 Selectivity” value in assay [2] is 52.7.

For `C=CC(=O)Nc1cc(Nc2cc(-c3ccc4c(cnn4CC)c3)ncn2)c(OC)cc1N(C)C1CCN(C)C1` (stereo not shown) [compound 112], the values for the IC50 in assay [1], in assay [2] and in assay [3] were 9.7 nM, 9 nM and 654 nM, respectively. The “A-431/NCI-H1975 Selectivity” value in assay [2] was found to be 72.7.

As for `C=CC(=O)Nc1cc(Nc2nccc(-c3ccc4c(cnn4C)c3)n2)c(OC)cc1N1CCN(CCN(C)C)CC1` [compound 113], the IC50 in assay [1] is 45.6 nM; in assay [2], 56.6 nM; in assay [3] it was 1360 nM. In assay [2], the “A-431/NCI-H1975 Selectivity” value is on record as 24.0.

For `C=CC(=O)Nc1cc(Nc2nccc(-c3ccc4c(cnn4C)c3)n2)c(OC(F)F)cc1N1CCN(CCN(C)C)CC1` [compound 114], the IC50 in assay [1] is 32.7 nM; in assay [2], 31.5 nM; in assay [3], 1480 nM. Besides, in assay [2], the “A-431/NCI-H1975 Selectivity” value worked out at 46.9.

In the case of `C=CC(=O)Nc1cc(Nc2cc(-c3ccc4c(cnn4C)c3)ncn2)c(OCC)cc1N1CCN(CCN(C)C)CC1` [compound 117], the values for the 50% inhibitory concentration (IC50) in assay [1], in assay [2] and in assay [3] were 11.2 nM, 11.3 nM and 679 nM, respectively. Moreover, the “A-431/NCI-H1975 Selectivity” value in assay [2] was determined as 60.1.

In the case of `C=CC(=O)Nc1cc(Nc2cc(-c3ccc4c(cnn4CC)c3)ncn2)c(OC)cc1N(C)CCN1CCN(C)CC1` [compound 118], the IC50 stood at 23.6 nM in assay [1], 19.9 nM in assay [2] and 1060 nM in assay [3]. For the same compound, in assay [2], the “A-431/NCI-H1975 Selectivity” value was found to be 53.2.

As for `C=CC(=O)Nc1cc(Nc2cc(-c3ccc4c(cnn4C)c3)ncn2)c(OCC)cc1N(C)CCN1CCN(C)CC1` [compound 119], the values for the half-inhibitory concentration (IC50) in assay [1], in assay [2] and in assay [3] were 17.8 nM, 23.1 nM and 1250 nM, respectively. Moreover, the “A-431/NCI-H1975 Selectivity” value in assay [2] worked out at 54.0.

In the case of `C=CC(=O)Nc1cc(Nc2cc(-c3ccc4c(cnn4C)c3)ncn2)c(OC(F)F)cc1N(C)CCNC(C)(C)C` [compound 120], the IC50 in assay [1] is 6.7 nM; in assay [2], 8.2 nM; in assay [3], 598 nM. In assay [2], the “A-431/NCI-H1975 Selectivity” value stood at 73.0.

Turning to `C=CC(=O)Nc1cc(Nc2cc(-c3ccc4c(cnn4C)c3)ncn2)c(OCC)cc1N(C)CCNC(C)(C)C` [compound 121], the IC50 in assay [1] was found to be 31.1 nM; in assay [2], 40.2 nM; in assay [3], 2310 nM. The “A-431/NCI-H1975 Selectivity” value in assay [2] was found to be 57.6.

In the case of `C=CC(=O)Nc1cc(Nc2cc(-c3ccc4c(cnn4C)c3)ncn2)c(OC(F)F)cc1NCCN(C)C` [compound 122], the IC50 in assay [1] was 11.6 nM; in assay [2], 5.2 nM; in assay [3] it was 580 nM. Further, the “A-431/NCI-H1975 Selectivity” value in assay [2] stood at 111.5.

`C=CC(=O)Nc1cc(Nc2cc(-c3ccc4c(cnn4C)c3)ncn2)c(OCC)cc1NCCN(C)C` [compound 123]: the concentration for half-maximal inhibition (IC50) in assay [1] was found to be 15.5 nM; in assay [2], 13.7 nM; in assay [3], 698 nM. For the same compound, in assay [2], the “A-431/NCI-H1975 Selectivity” value worked out at 51.0.

Take `C=CC(=O)Nc1cc(Nc2cc(-c3ccc4ncsc4c3)ncn2)c(OC)cc1N(C)CCN1CCN(C)CC1` [compound 124]: the figures for the concentration for half-maximal inhibition (IC50) in assay [1], in assay [2] and in assay [3] were 32.3 nM, 35.2 nM and 1470 nM, respectively. The “A-431/NCI-H1975 Selectivity” value in assay [2] is 41.7.

Take `C=CC(=O)Nc1cc(Nc2cc(-c3ccc4c(cnn4C)c3)ncn2)c(OC)cc1N(C)CCN1C[C@@H](C)N(C)[C@@H](C)C1` [compound 125]: the 50% inhibitory concentration (IC50) in assay [1] was 22.1 nM; in assay [2], 32.1 nM; in assay [3] it was 1580 nM. Also, the “A-431/NCI-H1975 Selectivity” value in assay [2] is recorded as 49.2.

For `C=CC(=O)Nc1cc(Nc2cc(-c3ccc4ncsc4c3)ncn2)c(OC)cc1N(C)CCN1C[C@@H](C)N(C)[C@@H](C)C1` [compound 126], the IC50 in assay [1] came out at 64.1 nM; in assay [2] it was 85 nM; in assay [3], 2010 nM. Besides, in assay [2], the “A-431/NCI-H1975 Selectivity” value is reported as 23.7.

Turning to `C=CC(=O)Nc1cc(Nc2cc(-c3ccc4c(cnn4C)c3)ncn2)c(OC)cc1N(C)CCN1CCN(C2CC2)CC1` [compound 127], the values for the IC50 in assay [1], in assay [2] and in assay [3] were 163 nM, 45.1 nM and 2300 nM, respectively. Also, in assay [2], the “A-431/NCI-H1975 Selectivity” value is reported as 51.0.

`C=CC(=O)Nc1cc(Nc2cc(-c3ccc4ncsc4c3)ncn2)c(OC)cc1N(C)CCN1CCN(C2CC2)CC1` [compound 128]: the IC50 in assay [1] is 70.7 nM; in assay [2], 103 nM; in assay [3] it was 1370 nM. The “A-431/NCI-H1975 Selectivity” value in assay [2] is listed as 13.2.

Take `C=CC(=O)Nc1cc(Nc2cc(-c3ccc4c(c3)ncn4C)ncn2)c(OC)cc1N(C)CCN1CCN(C(C)=O)CC1` [compound 130]: the 50% inhibitory concentration (IC50) in assay [1] amounted to 43.2 nM; in assay [2], 56.6 nM; in assay [3], 2310 nM. For the same compound, in assay [2], the “A-431/NCI-H1975 Selectivity” value was found to be 40.9.

Take `C=CC(=O)Nc1cc(Nc2cc(-c3ccc4c(c3)ncn4C)ncn2)c(OC)cc1OCCN1CCN(C)CC1` [compound 132]: the IC50 in assay [1] stood at 118 nM; in assay [2] it was 42.3 nM; in assay [3] it was 2040 nM. In assay [2], the “A-431/NCI-H1975 Selectivity” value stood at 48.3.

On to `C=CC(=O)Nc1cc(Nc2cc(-c3ccc4c(cnn4C)c3)ncn2)c(OC)cc1N1CCN(C2CCN(C)CC2)CC1` [compound 133], for which the IC50 in assay [1] came out at 10.7 nM; in assay [2], 9.9 nM; in assay [3], 598 nM. Also, the “A-431/NCI-H1975 Selectivity” value in assay [2] is recorded as 60.4.

For the compound `C=CC(=O)Nc1cc(Nc2cc(-c3ccc4c(cnn4C)c3)ncn2)c(OC)cc1N1CCN(C2CCN(C(C)=O)CC2)CC1` [compound 134], the IC50 in assay [1] amounted to 31.1 nM; in assay [2] it was 33.8 nM; in assay [3] it was 1430 nM. Besides, the “A-431/NCI-H1975 Selectivity” value in assay [2] was found to be 42.4.

As to `C=CC(=O)Nc1cc(Nc2cc(-c3ccc4c(cnn4C)c3)ncn2)c(OC)cc1N1CCN(C(=O)CN(C)C)CC1` [compound 135], the half-maximal inhibitory concentration (IC50) in assay [1] was determined as 17.7 nM; in assay [2], 15.4 nM; in assay [3] it was 756 nM.

As to `C=CC(=O)Nc1cc(Nc2cc(-c3ccc4c(cnn4C)c3)ncn2)c(OC)cc1N1CCN(CC(=O)N(C)C)CC1` [compound 136], the values for the IC50 in assay [1], in assay [2] and in assay [3] were 45.6 nM, 56.2 nM and 2300 nM, respectively. The “A-431/NCI-H1975 Selectivity” value in assay [2] is reported as 41.1.

Turning to `C=CC(=O)Nc1cc(Nc2cc(-c3ccc4c(cnn4C)c3)ncn2)c(OC)cc1N1CCC(N(CC)CC)CC1` [compound 137], the IC50 in assay [1] came to 7.6 nM; in assay [2], 4.8 nM; in assay [3], 597 nM.

The IC50 is the concentration at which inhibition is half-maximal. High values mean weaker potency in that assay, low ones greater potency in that assay.
